In paper PMC8838583, “Inhibition of Human Monoamine Oxidases A and B by Specialized Metabolites Present in Fresh Common Fruits and Vegetables” (Plants, 2022):
Like-named read-outs stand apart in the source and are kept apart here.

How the values were obtained:
human MAO-B = target: T1, human MAO-B (Homo sapiens, UniProt P27338); test: MAO-Glo bioluminescent MAO-B inhibition assay; type: biochemical; conditions: for Selectivity of inhibition between MAO-A and MAO-B, in words: comparison of MAO-A and MAO-B IC50 of Table 1
T1 construct: purchased MilliporeSigma (Milan, Italy); host or cells: baculovirus-infected insect cells (BTI-TN-5B1-4)
T1 sequence (P27338 1-520): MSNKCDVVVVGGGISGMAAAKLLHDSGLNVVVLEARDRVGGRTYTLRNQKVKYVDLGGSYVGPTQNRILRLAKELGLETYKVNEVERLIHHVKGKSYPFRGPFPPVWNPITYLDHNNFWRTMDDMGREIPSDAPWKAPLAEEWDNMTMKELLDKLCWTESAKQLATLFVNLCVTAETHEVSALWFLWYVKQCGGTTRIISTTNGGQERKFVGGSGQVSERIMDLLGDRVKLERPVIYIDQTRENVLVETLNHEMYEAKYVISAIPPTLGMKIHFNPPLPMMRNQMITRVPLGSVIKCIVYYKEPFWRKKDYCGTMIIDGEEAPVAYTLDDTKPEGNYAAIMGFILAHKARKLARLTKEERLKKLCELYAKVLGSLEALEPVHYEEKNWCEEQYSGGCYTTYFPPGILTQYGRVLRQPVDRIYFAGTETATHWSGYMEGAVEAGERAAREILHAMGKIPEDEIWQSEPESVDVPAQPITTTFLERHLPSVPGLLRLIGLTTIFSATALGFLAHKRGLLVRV

human MAO-A = target: T2, human MAO-A (Homo sapiens, UniProt P21397); test: MAO-Glo bioluminescent MAO-A inhibition assay; type: biochemical; conditions: Table 1
T2 construct: purchased MilliporeSigma (Milan, Italy); host or cells: baculovirus-infected insect cells (BTI-TN-5B1-4)
T2 sequence (P21397 1-527): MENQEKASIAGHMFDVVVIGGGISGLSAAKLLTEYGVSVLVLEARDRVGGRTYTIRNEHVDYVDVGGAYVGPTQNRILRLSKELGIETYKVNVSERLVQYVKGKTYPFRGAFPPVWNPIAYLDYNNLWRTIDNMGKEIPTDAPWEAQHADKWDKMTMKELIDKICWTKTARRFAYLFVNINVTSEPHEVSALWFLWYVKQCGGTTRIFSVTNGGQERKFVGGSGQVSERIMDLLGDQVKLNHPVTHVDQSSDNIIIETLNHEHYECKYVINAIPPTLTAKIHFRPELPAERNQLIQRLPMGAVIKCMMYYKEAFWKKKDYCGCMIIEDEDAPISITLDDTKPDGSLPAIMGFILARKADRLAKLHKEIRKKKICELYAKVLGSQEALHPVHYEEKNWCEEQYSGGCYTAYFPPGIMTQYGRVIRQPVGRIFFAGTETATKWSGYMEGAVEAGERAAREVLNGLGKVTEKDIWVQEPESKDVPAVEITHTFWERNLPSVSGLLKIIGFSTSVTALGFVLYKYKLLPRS

[1] = set-up: method as in PMID 21370449; conditions: after consumption of an apple smoothie; cited from earlier work
[2] = Table 1, MAO-Glo, mean of quadruplicate determinations, kiwifruit as mg fruit fresh weight/mL, read-out: IC50 Value MAO-B (mg/mL) (converted)
[3] = Table 1, molarity, standard metabolites, read-out: IC50 Value MAO-B M
[4] = molarity, standard metabolites, read-out: IC50 Value MAO-A M

| IC50 (human MAO-B; [2]) | IC50 (human MAO-A; MAO-Glo, mean of quadruplicate determinations, kiwifruit as mg fruit fresh weight/mL, read-out: IC50 Value MAO-A (mg/mL) (converted)) | Compound | IC50 (human MAO-B; [3]) | IC50 (human MAO-A; [4]) | Selectivity of inhibition between MAO-A and MAO-B, in words (human MAO-B) | Level detected in ileostomy fluids [1] | IC50 (human MAO-A; IC50 Value MAO-A (mg/mL), MAO-Glo, mean of quadruplicate determinations, kiwifruit as mg fruit fresh weight/mL) | IC50 (human MAO-A; IC50 Value MAO-A M, molarity, standard metabolites) | IC50 Value MAO-B (human MAO-B; Table 1, MAO-Glo, mean of quadruplicate determinations, kiwifruit as mg fruit fresh weight/mL) | IC50 Value MAO-A (human MAO-A; MAO-Glo, mean of quadruplicate determinations, kiwifruit as mg fruit fresh weight/mL) |
| --- | --- | --- | --- | --- | --- | --- | --- | --- | --- | --- |
| 0.444 mM | 2.72 mM | O=C(O)/C=C/c1ccc(O)c(O)c1 [Caffeic acid, caffeic acid] | 0.439 ± 0.03 mM | 2.75 ± 0.126 mM | – | – | – | – | – | – |
| 34.3 mM | – | O=C(O)[C@]1(O)C[C@@H](O)[C@@H](O)[C@H](O)C1 [D-(−)-Quinic acid, D-(−)-quinic acid] | 34.4 ± 1.31 mM | – | selective activity against MAO-B | ~ 70% | – | – | – | – |
| – | – | (+)-catechin hydrate | 4.03 ± 0.122 mM | 6.46 ± 0.121 mM | inhibited both enzymes similarly | – | – | – | 1.17 ± 0.04 mg/mL | 1.88 ± 0.04 mg/mL |

| Compound | IC50 (human MAO-B; [2]) | IC50 (human MAO-A; MAO-Glo, mean of quadruplicate determinations, kiwifruit as mg fruit fresh weight/mL, read-out: IC50 Value MAO-A (mg/mL) (converted)) | IC50 (human MAO-B; [3]) | IC50 (human MAO-A; [4]) | Selectivity of inhibition between MAO-A and MAO-B, in words (human MAO-B) | Level detected in ileostomy fluids [1] | IC50 (human MAO-A; IC50 Value MAO-A (mg/mL), MAO-Glo, mean of quadruplicate determinations, kiwifruit as mg fruit fresh weight/mL) | IC50 (human MAO-A; IC50 Value MAO-A M, molarity, standard metabolites) | IC50 Value MAO-B (human MAO-B; Table 1, MAO-Glo, mean of quadruplicate determinations, kiwifruit as mg fruit fresh weight/mL) | IC50 Value MAO-A (human MAO-A; MAO-Glo, mean of quadruplicate determinations, kiwifruit as mg fruit fresh weight/mL) |
| --- | --- | --- | --- | --- | --- | --- | --- | --- | --- | --- |
| O=c1ccc2cc(O[C@@H]3O[C@H](CO)[C@@H](O)[C@H](O)[C@H]3O)c(O)cc2o1 [Esculin] | 12 mM | – | 12.1 ± 0.372 mM | – | inhibited both enzymes similarly | – | 11.5 mM | 11.5 ± 0.43 mM | – | – |
